According to patent US20250179059A1 (The Regents of the University of California, priority 2021, published 2025):

Legend:
[1] = target: T1, human BRD4 bromodomain II (Homo sapiens, UniProt O60885); test: Bromodomain binding assay (AlphaScreen), BRD4 BDII; details: BRD4 BDII AlphaScreen assay; read-out: BRD4 BD2 IC50
T1 construct: human BRD4 bromodomain II [based on Genbank NM_058243, residues 349-460]; host or cells: E. coli
Outline: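 First, His6-tagged BRD4 bromodomain (BDI residues 44-170 or BDII residues 349-460) is incubated with compound for 30 min at room temperature. Next the biotinylated H4 peptide is added for 30 min, then donor and acceptor beads, with 60 min in the dark before AlphaScreen reading and IC50 fitting.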

[2] = test system: human SKM-1 acute myeloid leukemia cells; test: SKM-1 antiproliferation cell-based assay (ATPlite)
Outline: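 Log-phase cells in RPMI 1640/15% FBS were seeded at 34722 cells/mL and exposed for 4 days to nine-concentration DMSO serial dilutions in triplicate. Viability was read as ATP luminescence (ATPlite 1step), and IC50 values came from variable-slope non-linear regression.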

[3] = Homo sapiens, SKM-1, SKM-1 antiproliferation assay

Row | Structure (SMILES) | IC50 [1] | GI50 [2, 3] | GI50 ([2]; SKM-1 antiproliferation assay)
1 | Cn1ccn(-c2ccc(-c3cc(F)cc(-c4cccc(N5CCN(C6CCC6)CC5)c4)c3O)cc2Cl)c1=O [Example 868] | 1 to 10 nM | 0.3 to 30 nM | –
2 | COc1ncc(-c2cc(F)cc(-c3ccc(-n4ccn(C)c4=O)c(Cl)c3)c2O)cc1N1CCN(C2CCOC2)CC1 (centres unmarked) [Example 869] | 1 to 10 nM | 0.3 to 30 nM | –
3 | Cn1ccn(-c2ccc(-c3cc(F)cc(-c4ccccc4N4CCNCC4)c3O)cc2Cl)c1=O [Example 870] | 1 to 10 nM | 300 to 3000 nM | –
4 | COc1ncc(-c2cc(F)cc(-c3ccc(-n4ccn(C)c4=O)c(Cl)c3)c2O)cc1N1CC(C)(C)[C@](C)(O)C1 [Example 871] | 1 to 10 nM | 30 to 300 nM | –
5 | COc1ncc(-c2cc(F)cc(-c3ccc(-n4ccn(C)c4=O)c(Cl)c3)c2O)cc1N1CC(C)(C)[C@@](C)(O)C1 [Example 872] | 0.01 to 1 nM | 30 to 300 nM | –
6 | Cc1ncc(-c2cc(F)cc(-c3ccc(-n4ccn(C)c4=O)c(Cl)c3)c2O)cc1N1CC2(CC2)[C@](C)(O)C1 [Example 873] | 0.01 to 1 nM | 0.3 to 30 nM | –
7 | COc1ncc(-c2cc(F)cc(-c3ccc(-n4ccn(C)c4=O)c(Cl)c3)c2O)cc1N1CC2(CC2)[C@](C)(O)C1 [Example 875] | 0.01 to 1 nM | 0.3 to 30 nM | –
8 | COC(=O)Oc1c(-c2ccc(-n3ccn(C)c3=O)c(Cl)c2)cc(F)cc1-c1cnc(C)c(N2CCN(C(C)C)CC2)c1 [Example 877] | > 100 nM | 0.3 to 30 nM | –
9 | COC(=O)OCOc1c(-c2ccc(-n3ccn(C)c3=O)c(Cl)c2)cc(F)cc1-c1cnc(C)c(N2CCN(C(C)C)CC2)c1 [Example 878] | > 100 nM | 0.3 to 30 nM | –
10 | COc1ncc(-c2cc(F)cc(-c3ccc(-n4ccn(C)c4=O)c(Cl)c3)c2O)cc1N1CCC2(CCN2C(C)C)C1 (centres unmarked) [Example 879] | 1 to 10 nM | 0.3 to 30 nM | –
11 | COc1ncc(-c2cc(F)cc(-c3ccc(-n4ccn(C)c4=O)c(Cl)c3)c2O)cc1N1CCN(C2CCC2)CC1 [Example 880] | 0.01 to 1 nM | 0.3 to 30 nM | –
12 | Cn1ccn(-c2ccc(-c3cc(F)cc(-c4ccnc(N5CC(F)(F)[C@@](C)(O)C5)c4)c3O)cc2Cl)c1=O [Example 881] | 0.01 to 1 nM | – | 30 to 300 nM
13 | Cn1ccn(-c2ccc(-c3cc(F)cc(-c4ccnc(N5CC(F)(F)[C@@](C)(O)C5)c4)c3O)cc2Cl)c1=O [Example 882] | 1 to 10 nM | – | 0.3 to 30 nM
14 | Cc1ncc(-c2cc(F)cc(-c3ccc(-n4ccn(C)c4=O)c(Cl)c3)c2O)cc1N1CCN(C2CCC2)CC1 [Example 883] | 1 to 10 nM | 0.3 to 30 nM | –
15 | Cc1ncc(-c2cc(F)cc(-c3ccc(-n4ccn(C)c4=O)c(Cl)c3)c2O)cc1N1CC(C)(C)[C@](C)(O)C1 [Example 884] | 1 to 10 nM | 30 to 300 nM | –
16 | Cc1ncc(-c2cc(F)cc(-c3ccc(-n4ccn(C)c4=O)c(Cl)c3)c2O)cc1N1CC(C)(C)[C@@](C)(O)C1 [Example 885] | 1 to 10 nM | 30 to 300 nM | –
17 | [2H]C([2H])([2H])n1ccn(-c2ccc(-c3cc(F)cc(-c4cccc(N5CCN(C(C)(C)C)CC5)c4)c3O)cc2Cl)c1=O [Example 886] | 1 to 10 nM | 0.3 to 30 nM | –
18 | CC(=O)Nc1cnc(-c2cc(F)cc(-c3cccc(N4CCN(C(C)(C)C)CC4)c3)c2O)cn1 [Example 887] | > 100 nM | 300 to 3000 nM | –
19 | CC(=O)Nc1cccc(-c2cc(F)cc(-c3cccc(N4CCNCC4)c3)c2O)c1Cl [Example 888] | > 100 nM | 300 to 3000 nM | –
20 | Cn1ccn(-c2ccc(-c3cc(F)cc(-c4ccccc4CN4CCNCC4)c3O)cc2Cl)c1=O [Example 889] | > 100 nM | 300 to 3000 nM | –
21 | Cc1ncc(-c2cc(F)cc(-c3ccc(-n4ccn(C)c4=O)c(Cl)c3)c2O)cc1N1CCN(C2CCOC2)CC1 (centres unmarked) [Example 890] | 1 to 10 nM | 0.3 to 30 nM | –
22 | Cc1ncc(-c2cc(F)cc(-c3ccc(-n4ccn(C)c4=O)c(Cl)c3)c2O)cc1N1CCC2(CCN2C(C)C)C1 (centres unmarked) [Example 891] | 1 to 10 nM | 0.3 to 30 nM | –

Row | Structure (SMILES) | IC50 [1] | GI50 [2, 3] | GI50 ([2]; SKM-1 antiproliferation assay)
23 | CC(C)N1CCC12CCN(c1cccc(-c3cc(F)cc(-c4ccc(-n5ccn(C)c5=O)c(Cl)c4)c3O)c1)C2 (centres unmarked) [Example 892] | 1 to 10 nM | 0.3 to 30 nM | –
24 | CC(=O)Nc1cccc(-c2cc(F)cc(-c3cccc(N4CCC(C)(O)C4)c3)c2O)c1Cl (centres unmarked) [Example 893] | > 100 nM | 300 to 3000 nM | –
25 | CC(=O)Nc1cnc(-c2cc(F)cc(-c3cccc(N4CCN(C(C)(C)C)CC4)c3)c2O)nc1 [Example 894] | > 100 nM | 300 to 3000 nM | –
26 | Cn1ccn(-c2ccc(-c3cc(F)cc(-c4ccnc(N5CCC(C)(NCC(F)(F)F)C5)c4)c3O)cc2Cl)c1=O (centres unmarked) [Example 895] | 1 to 10 nM | 30 to 300 nM | –
27 | CC(=O)Nc1ccc(-c2cc(F)cc(-c3cccc(N4CCN(C(C)(C)C)CC4)c3)c2O)nn1 [Example 896] | > 100 nM | 300 to 3000 nM | –
28 | Cc1ncc(-c2cc(F)cc(-c3ccc(-n4ccn(C)c4=O)c(Cl)c3)c2O)cc1N1CC(F)(F)[C@@](C)(O)C1 [Example 897] | 1 to 10 nM | 30 to 300 nM | –
29 | Cc1ncc(-c2cc(F)cc(-c3ccc(-n4ccn(C)c4=O)c(Cl)c3)c2O)cc1N1CC(F)(F)[C@](C)(O)C1 [Example 898] | 1 to 10 nM | 30 to 300 nM | –
30 | COc1ncc(-c2cc(F)cc(-c3ccc(-n4ccn(C)c4=O)c(Cl)c3)c2O)cc1N1CC(F)(F)[C@@](C)(O)C1 [Example 899] | 1 to 10 nM | 300 to 3000 nM | –
31 | COc1ncc(-c2cc(F)cc(-c3ccc(-n4ccn(C)c4=O)c(Cl)c3)c2O)cc1N1CC(F)(F)[C@](C)(O)C1 [Example 900] | 0.01 to 1 nM | 30 to 300 nM | –
32 | Cn1ccn(-c2ccc(-c3cc(F)cc(-c4cccc(N5CCN(C(C)(C)C)CC5=O)c4)c3O)cc2Cl)c1=O [Example 901] | 0.01 to 1 nM | 30 to 300 nM | –
33 | COc1ncc(-c2cc(F)cc(-c3ccc(-n4ccn(C)c4=O)c(Cl)c3)c2O)cc1N1CC[C@@]2(CCN2C(C)C)C1 [Example 902] | 0.01 to 1 nM | 0.3 to 30 nM | –
34 | COc1ncc(-c2cc(F)cc(-c3ccc(-n4ccn(C)c4=O)c(Cl)c3)c2O)cc1N1CC[C@]2(CCN2C(C)C)C1 [Example 903] | 0.01 to 1 nM | 0.3 to 30 nM | –
35 | Cn1ccn(-c2ccc(-c3cc(F)cc(-c4cc(Cl)c(F)c(N5CCN(C(C)(C)C)CC5)c4)c3O)cc2Cl)c1=O [Example 904] | 0.01 to 1 nM | 30 to 300 nM | –
36 | Cn1ccn(-c2ccc(-c3cc(F)cc(-c4cc(N5CCN(C(C)(C)C)CC5)no4)c3O)cc2Cl)c1=O [Example 905, 1-(3′-(3-(4-(tert-butyl)piperazin-1-yl)isoxazol-5-yl)-3-chloro-5′-fluoro-2′-hydroxy-[1,1′-biphenyl]-4-yl)-3-methyl-1H-imidazol-2(3H)-one] | 1 to 10 nM | 30 to 300 nM | –
37 | CC(C)N1[C@H](C)CN(c2cccc(-c3cc(F)cc(-c4ccc(-n5ccn(C)c5=O)c(Cl)c4)c3O)c2)C[C@@H]1C [Example 906, 1-(3-chloro-5′-fluoro-2′-hydroxy-3″-((3R,5S)-4-isopropyl-3,5-dimethylpiperazin-1-yl)-[1,1′:3′,1″-terphenyl]-4-yl)-3-methyl-1H-imidazol-2(3H)-one] | 0.01 to 1 nM | 0.3 to 30 nM | –
38 | CC(=O)Nc1ncc(-c2cc(F)cc(-c3cccc(N4CCN(C(C)(C)C)CC4)c3)c2O)cn1 [Example 907, N-(5-(3′-(4-(tert-butyl)piperazin-1-yl)-5-fluoro-2-hydroxy-[1,1′-biphenyl]-3-yl)pyrimidin-2-yl)acetamide] | > 100 nM | > 3000 nM | –
39 | CC(=O)Nc1ccc(-c2cc(F)cc(-c3cccc(N4CCN(C(C)(C)C)CC4)c3)c2O)cn1 [Example 908, N-(5-(3′-(4-(tert-butyl)piperazin-1-yl)-5-fluoro-2-hydroxy-[1,1′-biphenyl]-3-yl)pyridin-2-yl)acetamide] | > 100 nM | > 3000 nM | –
40 | CC(C)N1CCCC12CCN(c1cccc(-c3cc(F)cc(-c4ccc(-n5ccn(C)c5=O)c(Cl)c4)c3O)c1)C2 (centres unmarked) [Example 909, 1-(3-chloro-5′-fluoro-2′-hydroxy-3″-(1-isopropyl-1,7-diazaspiro[4.4]nonan-7-yl)-[1,1′:3′,1″-terphenyl]-4-yl)-3-methyl-1H-imidazol-2(3H)-one] | 1 to 10 nM | 30 to 300 nM | –
41 | COc1cc(-c2cc(F)cc(-c3cccc(N4CCN(C(C)(C)C)CC4)c3)c2O)cc(Cl)c1-n1ccn(C)c1=O [Example 910, 1-(3″-(4-(tert-butyl)piperazin-1-yl)-3-chloro-5′-fluoro-2′-hydroxy-5-methoxy-[1,1′:3′,1″-terphenyl]-4-yl)-3-methyl-1H-imidazol-2(3H)-one] | 10 to 100 nM | 30 to 300 nM | –
42 | Cc1ncc(-c2cc(F)cc(-c3ccc(-n4ccn(C)c4=O)c(Cl)c3)c2O)cc1N1CCC2(CCCN2C(C)C)C1 (centres unmarked) [Example 911, 1-(3-chloro-5′-fluoro-2′-hydroxy-3′-(5-(1-isopropyl-1,7-diazaspiro[4.4]nonan-7-yl)-6-methylpyridin-3-yl)-[1,1′-biphenyl]-4-yl)-3-methyl-1H-imidazol-2(3H)-one] | 0.01 to 1 nM | 0.3 to 30 nM | –
43 | CC(=O)Nc1ccc(-c2cc(F)cc(-c3cccc(N4CCN(C(C)(C)C)CC4)c3)c2O)nc1 [Example 912, N-(6-(3′-(4-(tert-butyl)piperazin-1-yl)-5-fluoro-2-hydroxy-[1,1′-biphenyl]-3-yl)pyridin-3-yl)acetamide] | > 100 nM | 300 to 3000 nM | –
